Data reported in the NIST ThermoML archive (doi:10.1016/j.jct.2012.08.010).
± gives the expanded uncertainty stated by the source.

Experiment: refractive index (Na D-line) (dimensionless); φn = volume fraction of the nth substance listed
Conditions: 101 kPa, Liquid, Standard Abbe refractometry

C=C[Si]1(C)O[Si](C)(C=C)O[Si](C)(C=C)O[Si](C)(C=C)O1 (stereo not given) [2,4,6,8-tetramethyl-2,4,6,8-tetravinylcycloterasiloxane] + Cc1ccc(C)cc1
Conditions	refractive index
288.15 K, φ1 = 0.13	1.49061 ± 0.00031
288.15 K, φ1 = 0.2483	1.48349 ± 0.00031
288.15 K, φ1 = 0.3379	1.47804 ± 0.00031
288.15 K, φ1 = 0.4151	1.47284 ± 0.00031
288.15 K, φ1 = 0.4853	1.46901 ± 0.00032
288.15 K, φ1 = 0.5501	1.46502 ± 0.00032
288.15 K, φ1 = 0.5978	1.46207 ± 0.00032
288.15 K, φ1 = 0.6522	1.45876 ± 0.00032
288.15 K, φ1 = 0.6974	1.45592 ± 0.00032
288.15 K, φ1 = 0.738	1.45339 ± 0.00032
288.15 K, φ1 = 0.7753	1.45103 ± 0.00032
288.15 K, φ1 = 0.8083	1.44898 ± 0.00032
288.15 K, φ1 = 0.8395	1.44696 ± 0.00032
288.15 K, φ1 = 0.8652	1.44534 ± 0.00032
288.15 K, φ1 = 0.8938	1.44353 ± 0.00032
288.15 K, φ1 = 0.9184	1.44195 ± 0.00032
288.15 K, φ1 = 0.9358	1.44086 ± 0.00032
288.15 K, φ1 = 0.9803	1.43802 ± 0.00033
288.15 K, φ1 = 1	1.43674 ± 0.00033
298.15 K, φ1 = 0.13	1.48533 ± 0.00031
298.15 K, φ1 = 0.2483	1.47825 ± 0.00031
298.15 K, φ1 = 0.338	1.47286 ± 0.00031
298.15 K, φ1 = 0.4151	1.46772 ± 0.00031
298.15 K, φ1 = 0.4854	1.46393 ± 0.00032
298.15 K, φ1 = 0.5501	1.45998 ± 0.00032
298.15 K, φ1 = 0.5979	1.45705 ± 0.00032
298.15 K, φ1 = 0.6522	1.45378 ± 0.00032
298.15 K, φ1 = 0.6975	1.45098 ± 0.00032
298.15 K, φ1 = 0.7381	1.44845 ± 0.00032
298.15 K, φ1 = 0.7754	1.44612 ± 0.00032
298.15 K, φ1 = 0.8084	1.44409 ± 0.00032
298.15 K, φ1 = 0.8396	1.44211 ± 0.00032
298.15 K, φ1 = 0.8653	1.44053 ± 0.00032
298.15 K, φ1 = 0.8939	1.43869 ± 0.00032
298.15 K, φ1 = 0.9185	1.43716 ± 0.00032
298.15 K, φ1 = 0.9358	1.43605 ± 0.00032
298.15 K, φ1 = 0.9803	1.43326 ± 0.00033
298.15 K, φ1 = 1	1.43202 ± 0.00033
308.15 K, φ1 = 0.13	1.47996 ± 0.00031
308.15 K, φ1 = 0.2484	1.47298 ± 0.00031
308.15 K, φ1 = 0.338	1.46767 ± 0.00031
308.15 K, φ1 = 0.4152	1.46256 ± 0.00031
308.15 K, φ1 = 0.4855	1.45883 ± 0.00032
308.15 K, φ1 = 0.5502	1.45494 ± 0.00032
308.15 K, φ1 = 0.5979	1.45204 ± 0.00032
308.15 K, φ1 = 0.6523	1.44878 ± 0.00032
308.15 K, φ1 = 0.6975	1.446 ± 0.001
308.15 K, φ1 = 0.7381	1.44353 ± 0.00032
308.15 K, φ1 = 0.7754	1.44126 ± 0.00032
308.15 K, φ1 = 0.8084	1.4392 ± 0.0003
308.15 K, φ1 = 0.8396	1.43729 ± 0.00032
308.15 K, φ1 = 0.8653	1.4357 ± 0.0003
308.15 K, φ1 = 0.8939	1.43391 ± 0.00032
308.15 K, φ1 = 0.9185	1.43239 ± 0.00032
308.15 K, φ1 = 0.9359	1.43132 ± 0.00032
308.15 K, φ1 = 0.9803	1.42853 ± 0.00033
308.15 K, φ1 = 1	1.4273 ± 0.0003
318.15 K, φ1 = 0.1301	1.47462 ± 0.00031
318.15 K, φ1 = 0.2484	1.46772 ± 0.00031
318.15 K, φ1 = 0.3381	1.46245 ± 0.00031
318.15 K, φ1 = 0.4152	1.45742 ± 0.00031
318.15 K, φ1 = 0.4855	1.45373 ± 0.00032
318.15 K, φ1 = 0.5503	1.4499 ± 0.0003
318.15 K, φ1 = 0.598	1.44702 ± 0.00032
318.15 K, φ1 = 0.6523	1.4438 ± 0.0003
318.15 K, φ1 = 0.6976	1.44108 ± 0.00032
318.15 K, φ1 = 0.7381	1.43861 ± 0.00032
318.15 K, φ1 = 0.7755	1.43636 ± 0.00032
318.15 K, φ1 = 0.8084	1.43432 ± 0.00032
318.15 K, φ1 = 0.8396	1.43244 ± 0.00032
318.15 K, φ1 = 0.8653	1.43087 ± 0.00032
318.15 K, φ1 = 0.8939	1.42911 ± 0.00032
318.15 K, φ1 = 0.9185	1.42761 ± 0.00032
318.15 K, φ1 = 0.9359	1.42653 ± 0.00032
318.15 K, φ1 = 0.9803	1.42379 ± 0.00033
318.15 K, φ1 = 1	1.42257 ± 0.00033
328.15 K, φ1 = 0.1301	1.46923 ± 0.00031
328.15 K, φ1 = 0.2484	1.46244 ± 0.00031
328.15 K, φ1 = 0.3381	1.45725 ± 0.00031
328.15 K, φ1 = 0.4152	1.45229 ± 0.00031
328.15 K, φ1 = 0.4855	1.44864 ± 0.00032
328.15 K, φ1 = 0.5503	1.44483 ± 0.00032
328.15 K, φ1 = 0.598	1.44202 ± 0.00032
328.15 K, φ1 = 0.6523	1.43879 ± 0.00032
328.15 K, φ1 = 0.6976	1.43612 ± 0.00032
328.15 K, φ1 = 0.7382	1.43369 ± 0.00032
328.15 K, φ1 = 0.7755	1.43148 ± 0.00032
328.15 K, φ1 = 0.8085	1.42949 ± 0.00032
328.15 K, φ1 = 0.8396	1.42761 ± 0.00032
328.15 K, φ1 = 0.8653	1.42605 ± 0.00032
328.15 K, φ1 = 0.8939	1.42343 ± 0.00032
328.15 K, φ1 = 0.9185	1.42282 ± 0.00032
328.15 K, φ1 = 0.9359	1.42178 ± 0.00032
328.15 K, φ1 = 0.9803	1.41906 ± 0.00033
328.15 K, φ1 = 1	1.41785 ± 0.00033
